For assay [1], the target named is T1, His6-GSK-3β (Homo sapiens, UniProt P49841).
T1 construct: made in house; host or cells: Sf21 insect cells (baculovirus)
As to the kind of experiment: Inhibition of His6-GSK-3β kinase activity (ELISA-based format, time-resolved fluorescence readout). The format is biochemical. The following applies: for IC50: read-out: GSK3β IC50. The gist of the method:
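N-terminal His6-tagged full-length human GSK-3β (aa 2-419) expressed in Sf21 cells, 200 ng/ml, phosphorylating plate-coated GST-Rb with 20 μM ATP in pH 7.2 HEPES buffer, 30 min at 37° C. Phospho-Rb (Ser-780) detected by antibody plus Eu-labelled secondary, time-resolved fluorescence; IC50 from curves.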
(In an ELISA, binding on a coated surface is turned into a signal by an enzyme label.)

The target of assay [2] is T2, CDK5/GST-p25 (Homo sapiens, UniProt Q00535).
T2 construct: The final construct, encoding for full-length human CDK5; made in house; host or cells: Sf21 insect cells (baculovirus co-infection)
T2 sequence (Q00535 whole entry): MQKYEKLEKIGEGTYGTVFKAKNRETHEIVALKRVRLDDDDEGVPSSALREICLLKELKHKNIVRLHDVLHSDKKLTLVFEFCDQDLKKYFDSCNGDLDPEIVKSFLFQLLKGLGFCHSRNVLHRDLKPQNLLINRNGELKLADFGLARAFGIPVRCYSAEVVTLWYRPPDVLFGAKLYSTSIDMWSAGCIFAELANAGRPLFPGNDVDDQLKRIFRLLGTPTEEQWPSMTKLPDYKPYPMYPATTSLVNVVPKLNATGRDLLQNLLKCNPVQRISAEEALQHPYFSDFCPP
T2 sequence (Q15078 108-307 partner limits assumed): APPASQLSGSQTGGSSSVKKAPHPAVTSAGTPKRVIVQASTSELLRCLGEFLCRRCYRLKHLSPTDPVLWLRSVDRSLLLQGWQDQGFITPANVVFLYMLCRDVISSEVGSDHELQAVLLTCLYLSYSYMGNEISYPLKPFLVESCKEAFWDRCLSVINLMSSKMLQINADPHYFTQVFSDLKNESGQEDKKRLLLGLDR
Put plainly: Inhibition of CDK5/GST-p25 kinase activity (ELISA with time-resolved fluorescence readout). The format is biochemical. The gist of the method:
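Sf21-coexpressed full-length human CDK5 with GST-p25 (p35 aa 108-307), glutathione-purified, at 2 ng/ml was reacted for 20 min at 37 °C on plate-coated GST-Rb(773-928). Buffer was 20 mM HEPES pH 7.2, 10 µM ATP, 10 mM MgCl2 and 2.5% DMSO. Phospho-Rb Ser-780 was detected by Eu-labelled antibody TRF, and IC50 curves were fitted.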

Read-outs that look alike come from different tables or passages of the source.

T1 sequence (P49841 2-419): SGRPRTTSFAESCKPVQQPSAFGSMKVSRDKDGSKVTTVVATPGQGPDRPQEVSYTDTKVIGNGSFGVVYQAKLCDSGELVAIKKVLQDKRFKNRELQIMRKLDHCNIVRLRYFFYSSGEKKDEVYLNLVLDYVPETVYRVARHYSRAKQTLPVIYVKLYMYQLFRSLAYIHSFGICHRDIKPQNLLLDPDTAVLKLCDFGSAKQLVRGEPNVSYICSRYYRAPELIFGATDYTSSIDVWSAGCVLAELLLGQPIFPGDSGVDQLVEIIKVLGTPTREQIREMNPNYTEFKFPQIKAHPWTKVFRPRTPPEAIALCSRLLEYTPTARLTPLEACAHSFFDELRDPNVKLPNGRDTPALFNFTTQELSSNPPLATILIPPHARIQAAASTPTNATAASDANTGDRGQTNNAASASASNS

The term IC50 denotes the concentration at which inhibition is half-maximal. For `N#Cc1ccc2c(c1)C(c1nc(NCc3ccc(Cl)nc3)nc3nn(C4CCCC4)cc13)C(=O)N2` (stereo not drawn) [Example 171, 3-{6-[(6-Chloro-pyridin-3-ylmethyl)-amino]-2-cyclopentyl-2H-pyrazolo[3,4-d]pyrimidin-4-yl}-2-oxo-2,3-dihydro-1H-indole-5-carbonitrile], the IC50 in assay [1] (class symbols) and in assay [2] (class symbols) was < 300 nM each time.

Consider `CCN(CC)CCN(C)c1nc(C2C(=O)Nc3ccc(C#N)cc32)c2cn(C3CCCC3)nc2n1` (stereo not drawn) [Example 121, 3-{2-cyclopentyl-6-[(2-diethylamino-ethyl)-methyl-amino]-2H-pyrazolo [3,4-d]pyrimidin-4-yl}-2-oxo-2,3-dihydro-1H-indole-5-carbonitrile], for which the results for the IC50 in assay [1] (class symbols) and in assay [2] (class symbols) were < 300 nM and > 10000 nM, respectively.

In the case of `CCCn1cc2c(C3C(=O)Nc4ccc(C#N)cc43)nc(NCc3cccnc3)nc2n1` (stereo not drawn) [Example 184, 2-Oxo-3-{2-propyl-6-[(pyridin-3-ylmethyl)-amino]-2H-pyrazolo[3,4-d]pyrimidin-4-yl}-2,3-dihydro-1H-indole-5-carbonitrile], the concentration for half-maximal inhibition (IC50) in assay [1] (class symbols) and in assay [2] (class symbols) was < 300 nM throughout.

With `O=C1Nc2ccc(F)cc2C1c1nc(NCCN2CCOCC2)nc2c1CCC2` (stereo not drawn) [Example 318, 5-Fluoro-3-[2-(2-morpholin-4-ylethylamino)-6,7-dihydro-5H-cyclopentapyrimidin-4-yl]-1,3-dihydro-indol-2-one], the IC50 in assay [1] (class symbols) and in assay [2] (class symbols) was > 10000 nM throughout.

Turning to `Cn1cc2c(C3C(=O)Nc4ccc(Br)cc43)nc(NCc3ccncc3)nc2n1` (stereo not drawn) [Example 302, 5-Bromo-3-{2-methyl-6-[(pyridin-4-ylmethyl)-amino]-2H-pyrazolo[3,4-d]pyrimidin-4-yl}-1,3-dihydro-indol-2-one], the IC50 in assay [1] (class symbols) and in assay [2] (class symbols) was < 300 nM in each case.

As for `COc1ccc(Nc2nc3c(c(C4C(=O)Nc5ccc(C#N)cc54)n2)CCC3)cn1` (stereo not drawn) [Example 352, 3-[2-(6-Methoxy-pyridin-3-ylamino)-6,7-dihydro-5H-cyclopentapyrimidin-4-yl]-2-oxo-2,3-dihydro-1H-indole-5-carbonitrile], the half-maximal inhibitory concentration (IC50) in assay [1] (class symbols) and in assay [2] (class symbols) was > 10000 nM throughout.

Regarding `CCOCCn1cc2c(C3C(=O)Nc4ccc(Cl)cc43)nc(NCCCNC)nc2n1` (stereo not drawn) [Example 215, 5-Chloro-3-[2-(2-ethoxy-ethyl)-6-(3-methylamino-propylamino)-2H-pyrazolo [3,4-d]pyrimidin-4-yl]-1,3-dihydro-indol-2-one], the IC50 in assay [1] (class symbols) and in assay [2] (class symbols) was 300 to 3000 nM each time.

On to `O=C1Nc2ccc(Br)cc2C1c1nc(NCCCN2CCOCC2)nc2c1CCC2` (stereo not drawn) [Example 331, 5-Bromo-3-[2-(3-morpholin-4-yl-propylamino)-6,7-dihydro-5H-cyclopentapyrimidin-4-yl]-1,3-dihydro-indol-2-one], for which the IC50 in assay [1] (class symbols) is 300 to 3000 nM; in assay [2] (class symbols), > 10000 nM.

With `O=C1Nc2ccc(Br)cc2C1c1nc(Cl)nc2c1CCC2` (stereo not drawn) [Example 314, 5-Bromo-3-(2-chloro-6,7-dihydro-5H-cyclopentapyrimidin-4-yl)-1,3-dihydro-indol-2-one], the IC50 in assay [1] (class symbols) and in assay [2] (class symbols) was > 10000 nM each time.

As to `O=C1Nc2ccc(F)cc2C1c1nc(Cl)nc2c1CCC2` (stereo not drawn) [Example 315, 3-(2-Chloro-6,7-dihydro-5H-cyclopentapyrimidin-4-yl)-5-fluoro-1,3-dihydro-indol-2-one], the IC50 in assay [1] (class symbols) and in assay [2] (class symbols) was > 10000 nM each time.

As for `CN(C)CCCNc1nc2c(c(C3C(=O)Nc4ccc(Br)cc43)n1)CCC2` (stereo not drawn) [Example 335, 5-Bromo-3-[2-(3-dimethylamino-propylamino)-6,7-dihydro-5H-cyclopentapyrimidin-4-yl]-1,3-dihydro-indol-2-one], the IC50 in assay [1] (numeric bounds) and in assay [2] (numeric bounds) was > 3000 nM each time.

Turning to `N#Cc1ccc2c(c1)C(c1nc(Nc3ccc(F)nc3)nc3c1CCC3)C(=O)N2` (stereo not drawn) [Example 351, 3-[2-(6-Fluoro-pyridin-3-ylamino)-6,7-dihydro-5H-cyclopentapyrimidin-4-yl]-2-oxo-2,3-dihydro-1H-indole-5-carbonitrile], the IC50 in assay [1] (class symbols) and in assay [2] (class symbols) was > 10000 nM throughout.

`N#Cc1ccc2c(c1)C(c1nc(NCc3ccc(C(F)(F)F)nc3)nc3nn(C4CCCC4)cc13)C(=O)N2` (stereo not drawn) [Example 173, 3-{2-Cyclopentyl-6-[(6-trifluoromethyl-pyridin-3-ylmethyl)-amino]-2H-pyrazolo [3,4-d]pyrimidin-4-yl}-2-oxo-2,3-dihydro-1H-indole-5-carbonitrile]: the half-maximal inhibitory concentration (IC50) in assay [1] (class symbols) and in assay [2] (class symbols) was < 300 nM in each case.

In the case of `CCOCCNc1nc2c(c(C3C(=O)Nc4ccc(C#N)cc43)n1)CCC2` (stereo not drawn) [Example 344, 3-[2-(2-Ethoxy-ethylamino)-6,7-dihydro-5H-cyclopentapyrimidin-4-yl]-2-oxo-2,3-dihydro-1H-indole-5-carbonitrile], the “GSK3β % @10 μM” value in assay [1] (@10 μM) is reported as 69% @10 μM. In addition, in assay [2] (class symbols), the IC50 was 300 to 3000 nM.

`C=CCNc1nc(C2C(=O)Nc3ccc(Br)cc32)c2cn(C)nc2n1` (stereo not drawn) [Example 301, 3-(6-Allylamino-2-methyl-2H-pyrazolo[3,4-d]pyrimidin-4-yl)-5-bromo-1,3-dihydro-indol-2-one]: the half-inhibitory concentration (IC50) in assay [1] (class symbols) and in assay [2] (class symbols) was < 300 nM each time.

As to `O=C1Nc2ccc(Br)cc2C1c1nc(NCCc2cccnc2)nc2nn(C3CCCC3)cc12` (stereo not drawn) [Example 181, 5-Bromo-3-[2-cyclopentyl-6-(2-pyridin-3-yl-ethylamino)-2H-pyrazolo [3,4-d]pyrimidin-4-yl]-1,3-dihydro-1H-indol-2-one], the concentration for half-maximal inhibition (IC50) in assay [1] (class symbols) is < 300 nM. In addition, the “CDK5 % @10 μM” value in assay [2] (@10 μM) was found to be 70% @10 μM.

Consider `N#Cc1ccc2c(c1)C(c1nc(NCCN3CCSCC3)nc3nn(C4CCCC4)cc13)C(=O)N2` (stereo not drawn) [Example 178, 3-[2-Cyclopentyl-6-(2-thiomorpholin-4-yl-ethylamino)-2H-pyrazolo[3,4-d]pyrimidin-4-yl]-2-oxo-2,3-dihydro-1H-indole-5-carbonitrile], for which the figures for the half-inhibitory concentration (IC50) in assay [1] (class symbols) and in assay [2] (class symbols) were < 300 nM and 300 to 3000 nM, respectively.

For `N#Cc1ccc2c(c1)C(c1nc(NCCc3cccnc3)nc3nn(C4CCCC4)cc13)C(=O)N2` (stereo not drawn) [Example 114, 3-(2-cyclopentyl-6-(2-pyridin-3-yl-ethylamino)-2H-pyrazolo[3,4-d]pyrimidin-4-yl)-2-oxo-2,3-dihydro-1H-indole-5-carbonitrile], the IC50 in assay [1] (class symbols) and in assay [2] (class symbols) was < 300 nM throughout.

For the molecule `N#Cc1ccc2c(c1)C(c1nc(NCCCN3CCOCC3)nc3nn(C4CCCC4)cc13)C(=O)N2` (stereo not drawn) [Example 139, 3-[2-cyclopentyl-6-(3-morpholin-4-yl-propylamino)-2H-pyrazolo[3,4-d]pyrimidin-4-yl]-2-oxo-2,3-dihydro-1H-indole-5-carbonitrile], the 50% inhibitory concentration (IC50) in assay [1] (class symbols) and in assay [2] (class symbols) was < 300 nM in each case.

For the molecule `Cn1cc2c(C3C(=O)Nc4ccc(Cl)cc43)ncnc2n1` (stereo not drawn) [Example 83, 5-Chloro-3-(2-methyl-2H-pyrazolo[3,4-d]pyrimidin-4-yl)-1,3-dihydro-indol-2-one], the half-inhibitory concentration (IC50) was 300 to 3000 nM in assay [1] (class symbols) and < 300 nM in assay [2] (class symbols).

On to `O=C1Nc2ccc(F)cc2C1c1nc(NCc2ccccn2)nc2c1CCC2` (stereo not drawn) [Example 322, 5-Fluoro-3-{2-[(pyridin-2-ylmethyl)-amino]-6,7-dihydro-5H-cyclopentapyrimidin-4-yl}-1,3-dihydro-indol-2-one], for which the half-maximal inhibitory concentration (IC50) in assay [1] (class symbols) is > 10000 nM; in assay [2] (numeric bounds), > 3000 nM.

The values are drawn from patent US8354414B2, “Substituted bicyclic pyrimidines” (Cephalon, Inc, priority 2006, dated 2013).
